For the data set the following is noted: 101.33 kPa, Liquid.

Numbers after ± are expanded uncertainties.

The term speed of sound denotes how fast a sound wave travels through the sample. Broadly, the viscosity is the resistance of a fluid to flow.

`OCCCCO` [1,4-butanediol]: the speed of sound came to 1616.4 ± 3.4 m/s (293.15 K); 1605.6 ± 3.4 m/s (298.15 K); 1595.9 ± 3.3 m/s (303.15 K); 1587.3 ± 3.3 m/s (308.15 K); 1579.8 ± 3.3 m/s (313.15 K); 1570.2 ± 3.3 m/s (318.15 K). Besides, the viscosity is, setting by setting: (293.15 K) 97.26 ± 4.5 mPa·s; (298.15 K) 72.75 ± 1.9 mPa·s; (303.15 K) 56.89 ± 0.56 mPa·s; (308.15 K) 44.88 ± 0.75 mPa·s; (313.15 K) 35.81 ± 0.6 mPa·s; (318.15 K) 29.05 ± 0.5 mPa·s.
For `NC=O` [formamide], the speed of sound was 1615.8 ± 3.3 m/s (293.15 K); 1601 ± 3.3 m/s (298.15 K); 1589.2 ± 3.3 m/s (303.15 K); 1577.2 ± 3.3 m/s (308.15 K); 1565.1 ± 3.2 m/s (313.15 K); 1553.1 ± 3.2 m/s (318.15 K). Besides, the viscosity runs as follows: (293.15 K) 3.654 ± 0.081 mPa·s; (298.15 K) 3.322 ± 0.074 mPa·s; (303.15 K) 2.966 ± 0.067 mPa·s; (308.15 K) 2.653 ± 0.06 mPa·s; (313.15 K) 2.404 ± 0.055 mPa·s; (318.15 K) 2.219 ± 0.051 mPa·s.
As for `CCC(C)O` (stereo not given) [butan-2-ol], the speed of sound (293.15 K) is on record as 1232.6 ± 2.8 m/s; the speed of sound (298.15 K) is on record as 1212.6 ± 2.7 m/s; the speed of sound (303.15 K) was found to be 1194.6 ± 2.7 m/s; the speed of sound (308.15 K) was determined as 1174.5 ± 2.7 m/s; the speed of sound (313.15 K) was found to be 1155.9 ± 2.6 m/s; the speed of sound (318.15 K) amounted to 1138.6 ± 2.6 m/s. The viscosity (293.15 K) worked out at 4.212 ± 0.43 mPa·s; the viscosity (298.15 K) was determined as 3.034 ± 0.094 mPa·s; the viscosity (303.15 K) came out at 2.495 ± 0.076 mPa·s; the viscosity (308.15 K) came out at 2.106 ± 0.064 mPa·s; the viscosity (313.15 K) turned out to be 1.784 ± 0.055 mPa·s; the viscosity (318.15 K) is 1.524 ± 0.048 mPa·s.
For `CCCCO` [butan-1-ol], the speed of sound amounted to 1262.4 ± 2.8 m/s (293.15 K); 1242.6 ± 2.7 m/s (298.15 K); 1224.6 ± 2.7 m/s (303.15 K); 1207.6 ± 2.7 m/s (308.15 K); 1189.2 ± 2.7 m/s (313.15 K); 1170 ± 2.6 m/s (318.15 K). For the same molecule, the viscosity is, setting by setting: (293.15 K) 2.936 ± 0.066 mPa·s; (298.15 K) 2.542 ± 0.058 mPa·s; (303.15 K) 2.275 ± 0.052 mPa·s; (308.15 K) 1.998 ± 0.046 mPa·s; (313.15 K) 1.744 ± 0.041 mPa·s; (318.15 K) 1.571 ± 0.037 mPa·s.
Turning to `CC(O)CCO` (stereo not given) [1,3-butanediol], the speed of sound reads like this: (293.15 K) 1539.6 ± 3.3 m/s; (298.15 K) 1523.4 ± 3.2 m/s; (303.15 K) 1506.3 ± 3.2 m/s; (308.15 K) 1492.5 ± 3.2 m/s; (313.15 K) 1480.8 ± 3.2 m/s; (318.15 K) 1470.3 ± 3.2 m/s. For the same molecule, the viscosity is, setting by setting: (293.15 K) 130.32 ± 11 mPa·s; (298.15 K) 97.26 ± 5.9 mPa·s; (303.15 K) 69.84 ± 2.3 mPa·s; (308.15 K) 52.54 ± 0.69 mPa·s; (313.15 K) 39.42 ± 0.95 mPa·s; (318.15 K) 30.51 ± 0.75 mPa·s.

For the origin of these results see the NIST ThermoML archive (doi:10.1016/j.fluid.2007.12.007).
